Measured values taken from patent US20240381872A1, “SUBSTITUTED 2,3-DIHYDRO[1,3]THIAZOLO[4,5-B]PYRIDINES, SALTS THEREOF AND THEIR USE AS HERBICIDALLY ACTIVE SUBSTANCES” (BAYER AKTIENGESELLSCHAFT, priority 2021, published 2024).

How the values were obtained:
Assay type in all cases: in vivo
[1] = test system: Alopecurus myosuroides (ALOMY); assay: Herbicidal pre-emergence action, section C (Table C2); conditions: application rate 320 g/ha, visual grading after ca. 3 weeks vs untreated controls
Text: (§1) Seeds of mono- and dicotyledonous weed plants and crop plants were sown, in plastic or organic planting pots, in sandy loam and covered with soil. The compounds according to the invention, formulated in the form of wettable powders (WP) or as emulsifiable concentrates (EC), were applied to the surface of the covering soil as aqueous suspension or emulsion, with the addition of 0.5% of an additive, at an application rate of 600 l of water/ha (converted). Following treatment, the pots were placed in a greenhouse and kept under optimum growth conditions for the test plants. The visual grading of the damage to the test plants was carried out after ca. 3 weeks in comparison to untreated controls (herbicidal effect in percent (%): 100% effect=plants have died off, 0% effect=as control plants).

[2] = test system: Matricaria inodora (MATIN); assay: Herbicidal pre-emergence action, section C (Table C6); conditions: application rate 320 g/ha, visual grading after ca. 3 weeks
Text: as §1

[3] = test system: Polygonum convolvulus (POLCO); assay: Herbicidal pre-emergence action, section C (Table C7); conditions: visual grading after ca. 3 weeks
Text: as §1

[4] = test system: Zea mays (ZEAMX); assay: Pre-emergence effects on crop plants, section D (Table D1); conditions: application rate 320 g/ha; visual grading after ca. 3 weeks
In short: (§2)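 Read-out: visual percent injury versus untreated controls at ca. 3 weeks (0% as control, 100% dead). Treatment: aqueous WP/EC suspension or emulsion with 0.5% additive, 600 l/ha, on soil covering seeds in sandy loam, at 320 g/ha or below, under optimum greenhouse conditions.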

[5] = test system: Triticum aestivum (TRZAS); assay: Pre-emergence effects on crop plants, section D (Table D2); conditions: visual grading after ca. 3 weeks
In short: as §2

[6] = test system: Abutilon theophrasti (ABUTH); assay: Herbicidal pre-emergence action, section A (Table A1); conditions: application rate 1280 g/ha; visual grading after ca. 3 weeks vs untreated controls
Text: as §1, with “plants” for “plants and crop plants”, “sown” for “sown,”, “pots (double sowings with one species of mono- and one species of dicotyledonous weed plants per pot),” for “or organic planting pots,”, “loam,” for “loam”, “water per hectare” for “water/ha”

[7] = test system: Echinochloa crus-galli (ECHCG); assay: Herbicidal pre-emergence action, section A (Table A3); conditions: visual grading after ca. 3 weeks vs untreated controls
In short: (§3)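 Sandy loam pots, seeds covered with soil, treated on the soil surface with aqueous WP or EC preparations containing 0.5% additive (600 l/ha). Visual damage rating after ca. 3 weeks in greenhouse; scale 0% (as control) to 100% (plants died off).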

[8] = test system: Kochia scoparia (KCHSC); assay: Herbicidal pre-emergence action, section A (Table A4); conditions: visual grading after ca. 3 weeks vs untreated controls
In short: as §3

[9] = test system: Kochia scoparia (KCHSC); assay: Herbicidal post-emergence action, section B (Table B4); conditions: visual rating about 3 weeks after treatment vs untreated controls
In short: (§4)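 Under optimum greenhouse conditions, sandy-loam-grown weeds at the one-leaf stage are sprayed with aqueous suspension or emulsion carrying 0.5% additive, 600 liters per hectare. About 3 weeks later, visual percent activity is scored relative to untreated controls.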

[10] = test system: Lolium rigidum (LOLRI); assay: Herbicidal post-emergence action, section B (Table B5); conditions: application rate 1280 g/ha; visual rating about 3 weeks after treatment vs untreated controls
Protocol: Seeds of mono- and dicotyledonous weed plants were placed in plastic pots in sandy loam soil (doubly sown with in each case one species of mono- or dicotyledonous weed plants per pot), covered with soil and cultivated in a greenhouse under controlled growth conditions. 2 to 3 weeks after sowing, the test plants were treated at the one-leaf stage. The compounds of the invention, formulated in the form of wettable powders (WP) or as emulsion concentrates (EC), were applied onto the green parts of the plants as aqueous suspension or emulsion with addition of 0.5% additive at a water application rate of 600 liters per hectare (converted). After the test plants had been kept in the greenhouse under optimum growth conditions for about 3 weeks, the activity of the preparations was rated visually in comparison to untreated controls. For example, 100% activity=the plants have died, 0% activity=like control plants.

[11] = test system: Veronica persica (VERPE); assay: Herbicidal post-emergence action, section B (Table B10); conditions: visual rating about 3 weeks after treatment vs untreated controls
In short: as §4

CC(C)C(=O)N1C[S+]([O-])c2cc(Br)c(-c3ccccc3)nc21 (stereo not shown) [Example I-067]
pest or weed control at 320 g/ha ([1]; Alopecurus myosuroides, pre-emergence, 504 h, read-out: pre-emergence activity against ALOMY in %): 90%
pest or weed control at 320 g/ha ([2]; Tripleurospermum inodorum, pre-emergence, 504 h, read-out: pre-emergence activity against MATIN in %): 80%
pest or weed control at 80 g/ha ([3]; Fallopia convolvulus, pre-emergence, 504 h, application rate 80 g/ha, read-out: pre-emergence activity against POLCO in %): 90%
pre-emergence activity against ZEAMX in % (crop plant damage) [4]: 20%
pre-emergence activity against TRZAS in % (crop plant damage) ([5]; application rate 80 g/ha): 10%

COC(=O)CCC(=O)N1CSc2cc(Cl)c(-c3ccccc3F)nc21 [Example I-003]
pre-emergence activity against ABUTH in % [6]: 90%
pre-emergence activity against ECHCG in % ([7]; application rate 1280 g/ha): 100%
pre-emergence activity against KCHSC in % ([8]; application rate 1280 g/ha): 100%
post-emergence activity against KCHSC in % ([9]; application rate 320 g/ha): 90%
post-emergence activity against LOLRI in % [10]: 90%
post-emergence activity against VERPE in % ([11]; application rate 320 g/ha): 100%
pre-emergence activity against ALOMY in % [1]: 80%
pre-emergence activity against MATIN in % [2]: 80%
pre-emergence activity against TRZAS in % (crop plant damage) ([5]; application rate 80 g/ha): 20%

Cc1cc2c(nc1-c1ccccc1F)N(S(=O)(=O)Cc1ccc(F)cc1)CS2 [Example I-122]
pre-emergence activity against ABUTH in % [6]: 90%
pre-emergence activity against ECHCG in % ([7]; application rate 320 g/ha): 100%
pre-emergence activity against KCHSC in % ([8]; application rate 320 g/ha): 90%
post-emergence activity against KCHSC in % ([9]; application rate 320 g/ha): 90%
post-emergence activity against LOLRI in % [10]: 90%
post-emergence activity against VERPE in % ([11]; application rate 320 g/ha): 90%
pre-emergence activity against ALOMY in % [1]: 100%
pre-emergence activity against MATIN in % [2]: 80%
pre-emergence activity against POLCO in % ([3]; application rate 80 g/ha): 80%
pre-emergence activity against ZEAMX in % (crop plant damage) [4]: 0%
pre-emergence activity against TRZAS in % (crop plant damage) ([5]; application rate 80 g/ha): 10%

CCc1ccccc1-c1nc2c(cc1C)[S+]([O-])CN2 (stereo not shown) [Example I-047]
pest or weed control at 320 g/ha ([7]; Echinochloa crus-galli, pre-emergence, 504 h, application rate 320 g/ha, read-out: pre-emergence activity against ECHCG in %): 100%
pest or weed control at 320 g/ha ([9]; Bassia scoparia, post-emergence, 504 h, application rate 320 g/ha, read-out: post-emergence activity against KCHSC in %): 90%
pest or weed control at 320 g/ha ([11]; Veronica persica, post-emergence, 504 h, application rate 320 g/ha, read-out: post-emergence activity against VERPE in %): 90%
pest or weed control at 320 g/ha ([3]; Fallopia convolvulus, pre-emergence, 504 h, application rate 320 g/ha, read-out: pre-emergence activity against POLCO in %): 80%
pre-emergence activity against ZEAMX in % (crop plant damage) [4]: 20%
pre-emergence activity against TRZAS in % (crop plant damage) ([5]; application rate 320 g/ha): 10%

BN1CSc2cc(Br)c(-c3ccccc3C)nc21 [Example I-011]
pre-emergence activity against ECHCG in % ([7]; application rate 320 g/ha): 100%
pre-emergence activity against KCHSC in % ([8]; application rate 1280 g/ha): 90%
post-emergence activity against KCHSC in % ([9]; application rate 1280 g/ha): 90%
post-emergence activity against VERPE in % ([11]; application rate 1280 g/ha): 90%
pre-emergence activity against ALOMY in % [1]: 90%
pre-emergence activity against ZEAMX in % (crop plant damage) [4]: 10%
